Patent US10363314B2, “Sprayable topical carrier and composition comprising phosphatidylcholine” (LIPIDOR AB, priority 2013, dated 2019)

Test system: human skin
Assay: Erythema occurrence upon treating skin with carriers under occlusion for 12 days, first study
Format: in vivo
Conditions: 33 healthy volunteers, occlusive conditions, applied 5 days per week, scored after 12 days, index 0-4
Method: The effect of prior art pharmaceutical compositions and of carriers and compositions of the invention on human skin was observed by visual inspection or by determining erythema index by using DermaLab Combo and DSM II Colormeter (Cortex Technology, Denmark).
Erythema occurrence was assessed in two human studies. In the first study the skin irritation potential of different lipid carriers was evaluated. Thirty-three healthy volunteers received the test formulations and a positive and negative control under occlusive conditions. The test articles were applied 5 days per week and the irritation grade was scored after 12 days according to a four-level assessment index (0=No reaction; 1=Slight diffuse, partial erythema; 2=Clear, sharply demarcated erythema; 3=Severe erythema with induration; 4=Severe erythema with induration and/or epidermal defect).

Question: For CCCCCCCCCCCCOS(=O)(=O)[O-].[Na+] [Pos. control, Sodium dodecylsulfate], which “Mean erythema assessment index” value is on record?
Answer: The value was 3.0.
